Reference: patent US11453642B2, “Oxygenated amino- or ammonium-containing sulfonic acid, phosphonic acid and carboxylic acid derivatives and their medical use” (GRI BIO, INC., priority 2011, dated 2022)

Tests used:
RBL-2H3 cells = assay: Maximum tolerated concentration (cytotoxicity by lactate dehydrogenase release); format: cell-based, Rat; conditions: for MTC (maximum tolerated concentration): highest concentration not causing cytotoxicity (LDH release), RBL-2H3 cells; for SI (safety index): ratio between MTC and IC50
Description: The safety index (SI) of a test compound is the ratio between the maximum tolerated concentration and the IC50 and is used as a measure of the relative safety of the test compound.

[1] = system: Akt phosphorylation on Ser473; assay: Inhibition of activation of Akt kinase (phospho-Akt Ser473 assay in RBL-2H3 cells); format: cell-based, Rat; conditions: IgE and antigen 15 min, normalized to total Akt
Description: The mast cell degranulation assay using the RBL-2H3 cell line (see example 6) was also used to determine the status of the PI3K/Akt axis. Activation of PI3K leads to production of PIP3 on the cytosolic side of the lipid bilayer. Akt is recruited to the PIP3 domain and subsequently activated by phosphorylation on residues Ser473 and Thr308. (Franke et al., Cell 81:727-736, (1995)). Once recruited to the membrane, it is phosphorylated and activated by other kinases (Hemmings, Science 275:628-630 (1997); Hemmings, Science 276:534 (1997); Downward. Science 279:673-674 (1998); Alessi et al., EMBO J. 15:6541-6551 (1996)). Western blotting of the phosphorylated Ser473 residue on Akt (phospho-Akt Ser473) is widely used to assess the level of activation of the PI3K/Akt axis.
All buffers and solutions used for the phosphor-Akt Ser473 assay were from Meso Scale Discovery. Tris Lysis Buffer consisted of 150 mM NaCl, 20 mM Tris, pH 7.5, 1 mM EDTA, 1 mM EGTA and 1% Triton-X-100. Complete Tris Lysis Buffer was prepared prior to use by addition of protease inhibitor, phosphatase inhibitors and PMSF. The 10× Tris Wash Buffer consisted of 500 mM Tris, pH 7.5, 1.5 M NaCl and 0.2% Tween-20. Blocker A was made up of bovine serum albumin in Tris Wash Buffer, Read Buffer T was used according to manufacturer's instructions. The Whole Cell Lysate Kits used were phospho-Akt Ser473 (K111000, Lot K0011749) and total ERK1/2 (K11107D, Lot K0011698) as a loading control.
Protein assay: protein concentration was determined using the BCA (bicinchoninic acid) Protein Assay kit according to the manufacturer's instructions. Briefly, duplicate 10 μl samples of bovine serum albumin (BSA) standards, blank and lysates were incubated in a 96-well plate with 0.2 ml working reagent for 30 min at 37° C. Plates were cooled to room temperature for 5 min and absorbance at 562 nm was measured in a multi-mode plate reader. Protein concentrations were calculated using FlexStation 3 software (SoftMax Pro version 5.3), Protein concentration of lysates was determined from a standard curve (BSA) using a linear curve fit.
Phosphoprotein assay: protein phosphorylation was determined using the MULTI-SPOT® Assay System (Meso Scale Discovery), providing simultaneous detection of phosphorylated and total proteins. Briefly, capture antibodies against phosphorylated and total protein are patterned on distinct spots in the same well of 96-well plates. Sandwich immunoassay and electrochemiluminescence detection technology are combined to measure intensity of the emitted light from phosphorylated and total protein spots. Analysis of phosphor-Akt Ser473 was performed according to the manufacturer's instructions. The optimal amount of protein was determined at 5 μg lysate per well for ERK1/2 and 10 μg/well for phospho-Akt Ser473, Plates were blocked with 25 μl/well Blocker A for 1 h at room temperature with gentle agitation. During this time, the lysates were thawed and diluted to the desired protein concentration in complete Tris Lysis Buffer. Plates were washed four times in Tris Wash Buffer and 25 μl lysate per well added. Plates were incubated for 1-3 h at room temperature with agitation according to the manufacturer's recommendations. Plates were washed four times with Tris Wash Buffer, followed by addition of 25 μl/well of the respective detection antibody and incubation for 1 h at room temperature, with agitation. After a final four washes with Tris Wash Buffer 150 μl/well, Read Buffer T was added and plates read on a SECTOR Imager 6000 plate reader.
The mean background signal from each plate was subtracted from averaged raw data. The amount of total protein phosphorylated was expressed as % phosphoprotein according to the manufacturer's (Meso Scale Discovery) instructions.
Levels of phospho-Akt Ser473 were determined in IgE sensitized and antigen stimulated cells after treatment without (positive control) or with 1, 5 and 25 μM test compound and normalized to levels of total Akt.

[2] = system: collagen type II-induced arthritis (CIA)

Row | SMILES | MTC (maximum tolerated concentration) (RBL-2H3 cells) [µM] | SI (safety index) (RBL-2H3 cells) | Level of phospho-Akt Ser473 ([1]; 1 μM) [% positive control] | Level of phospho-Akt Ser473 ([1]; 5 μM) [% positive control] | Level of phospho-Akt Ser473 ([1]; 25 μM) [% positive control] | spleen and thymus weights ([2]; mouse, in vivo) | toxic effects ([2]; mouse, in vivo) | cumulative arthritis score and paw thickness ([2]; prophylactic regimen day 0-47, 25 and 100 mg/kg orally twice daily, vs vehicle) | arthritis score and cumulative arthritis score ([2]; therapeutic regimen, 100 mg/kg orally twice daily for 20 days, day 11 to 13 and day 21, vs vehicle)
1 | CCCCCCCCCCCCCCCCN(C)CC(O)CS(=O)(=O)O (centres unmarked) [Compound 1a, 2-hydroxy-3-(N-methylhexadecylammonio)propane-sulfonate] | 75 | 10.9 | 80.8 ± 17.9 | 62.4 ± 16.1 | 9.7 ± 4.9 | did not reduce | did not show any toxic effects | reduced | significantly reduced
2 | CCCCCCCCCCCCN(C)CC(O)CS(=O)(=O)O (centres unmarked) [Compound 1c, 2-hydroxy-3-(N-methyldodecylammonio)propanesulfonate] | 200 | 48.8 | 119.7 ± 35.7 | 67.9 ± 17.3 | 17.4 ± 6.4 | – | – | – | –
